Holding throughout (type): functional
Assay [1] relates to Ovis aries. Nature of the assay: Antiparasitic activity against Oesophagostomum columbianum at dose of 0.20 mg/kg in sheep anthelmintic test. The conditions noted are these: dose 0.2 mg/kg.
Assay [2] relates to Ovis aries. In words: Antiparasitic activity against Trichostrongylus colubriformis at dose of 0.20 mg/kg in sheep anthelmintic test. Conditions: dose 0.2 mg/kg.
In assay [3] the test system is Ovis aries. Nature of the assay: Antiparasitic activity against Cooperia […] at dose of 0.20 mg/kg in sheep anthelmintic test. The conditions noted are these: dose 0.2 mg/kg.
Assay [4] deals with Ovis aries. In words: Antiparasitic activity against Haemonchus contortus at dose of 0.20 mg/kg in sheep anthelmintic test. The conditions noted are these: dose 0.2 mg/kg.
Another assay has as its system Artemia. In words: In vitro antiparasitic activity in brine shrimp assay.
For assay [5], the system named is Ovis aries. Nature of the assay: Antiparasitic activity against Cooperia oncophora at dose of 0.20 mg/kg in sheep anthelmintic test. Conditions: dose 0.2 mg/kg.
Assay [6] concerns Ovis aries. Nature of the assay: Antiparasitic activity against Trichostrongylus axei at dose of 0.20 mg/kg in sheep anthelmintic test. Conditions: dose 0.2 mg/kg.
Assay [7] relates to Ovis aries. Nature of the assay: Antiparasitic activity against Ostertagia circumcincta at dose of 0.20 mg/kg in sheep anthelmintic test. Conditions: dose 0.2 mg/kg.
Assay [8] deals with Ovis aries. In words: Antiparasitic activity against Cooperia […] at dose of 0.04 mg/kg in sheep anthelmintic test.
For assay [9], the system named is Ovis aries. Nature of the assay: Antiparasitic activity against Trichostrongylus axei at dose of 0.04 mg/kg in sheep anthelmintic test.
Assay [10] has as its system Ovis aries. Nature of the assay: Antiparasitic activity against Oesophagostomum columbianum at dose of 0.04 mg/kg in sheep anthelmintic test.
For assay [11], the system named is Ovis aries. Nature of the assay: Antiparasitic activity against Haemonchus contortus at dose of 0.04 mg/kg in sheep anthelmintic test.
Assay [12] deals with Ovis aries. In words: Antiparasitic activity against Ostertagia circumcincta at dose of 0.04 mg/kg in sheep anthelmintic test.
Assay [13] has as its system Ovis aries. In words: Antiparasitic activity against Trichostrongylus colubriformis at dose of 0.04 mg/kg in sheep anthelmintic test.
The test system of assay [14] is Ovis aries. Nature of the assay: Antiparasitic activity against Cooperia oncophora at dose of 0.05 mg/kg in sheep anthelmintic test.
Assay [15] concerns Ovis aries. Nature of the assay: Antiparasitic activity against Haemonchus contortus at dose of 0.05 mg/kg in sheep anthelmintic test.
The test system of assay [16] is Ovis aries. Nature of the assay: Antiparasitic activity against Oesophagostomum columbianum at dose of 0.05 mg/kg in sheep anthelmintic test.
Assay [17] has as its system Ovis aries. In words: Antiparasitic activity against Trichostrongylus axei at dose of 0.05 mg/kg in sheep anthelmintic test.
Assay [18] has as its system Ovis aries. Nature of the assay: Antiparasitic activity against Trichostrongylus colubriformis at dose of 0.05 mg/kg in sheep anthelmintic test.
For assay [19], the system named is Ovis aries. Nature of the assay: Antiparasitic activity against Cooperia […] at dose of 0.05 mg/kg in sheep anthelmintic test.
The subject of assay [20] is Ovis aries. Nature of the assay: Antiparasitic activity against Ostertagia circumcincta at dose of 0.05 mg/kg in sheep anthelmintic test.
The next assay concerns Cooperia. In words: Antiparasitic activity against Cooperia […] at dose of 0.10 mg/kg in sheep anthelmintic test. Conditions: dose 0.1 mg/kg.
A further assay relates to Trichostrongylus axei. Nature of the assay: Antiparasitic activity against Trichostrongylus axei at dose of 0.10 mg/kg in sheep anthelmintic test. Conditions: dose 0.1 mg/kg.
Assay [21] relates to Teladorsagia circumcincta. In words: Antiparasitic activity against Ostertagia circumcincta at dose of 0.10 mg/kg in sheep anthelmintic test. Conditions: dose 0.1 mg/kg.
The test system of the next assay is Haemonchus contortus. Nature of the assay: Antiparasitic activity against Haemonchus contortus at dose of 0.10 mg/kg in sheep anthelmintic test. Conditions: dose 0.1 mg/kg.
Assay [22] deals with Oesophagostomum columbianum. Nature of the assay: Antiparasitic activity against Oesophagostomum columbianum at dose of 0.10 mg/kg in sheep anthelmintic test. The conditions noted are these: dose 0.1 mg/kg.
In another assay the test system is Cooperia oncophora. Nature of the assay: Antiparasitic activity against Cooperia oncophora at dose of 0.10 mg/kg in sheep anthelmintic test. Conditions: dose 0.1 mg/kg.
Assay [23] deals with Trichostrongylus colubriformis. Nature of the assay: Antiparasitic activity against Trichostrongylus colubriformis at dose of 0.10 mg/kg in sheep anthelmintic test. The conditions noted are these: dose 0.1 mg/kg.
Assay [24] has as its system Ovis aries. In words: Antiparasitic activity against Haemonchus contortus at dose of 0.08 mg/kg in sheep anthelmintic test.
The test system of assay [25] is Ovis aries. Nature of the assay: Antiparasitic activity against Trichostrongylus axei at dose of 0.08 mg/kg in sheep anthelmintic test.
For assay [26], the system named is Ovis aries. In words: Antiparasitic activity against Oesophagostomum columbianum at dose of 0.08 mg/kg in sheep anthelmintic test.
In assay [27] the test system is Ovis aries. Nature of the assay: Antiparasitic activity against Trichostrongylus colubriformis at dose of 0.08 mg/kg in sheep anthelmintic test.
The subject of assay [28] is Ovis aries. In words: Antiparasitic activity against Ostertagia circumcincta at dose of 0.08 mg/kg in sheep anthelmintic test.
For assay [29], the system named is Ovis aries. Nature of the assay: Antiparasitic activity against Cooperia […] at dose of 0.08 mg/kg in sheep anthelmintic test.

As to `CCC(C)[C@H]1O[C@]2(C=C[C@@H]1C)C[C@@H]1C[C@@H](C/C=C(\C)[C@@H](O[C@H]3C[C@H](OC)[C@@H](O[C@H]4C[C@H](OC)[C@H](NCc5ccccc5)[C@H](C)O4)[C@H](C)O3)[C@@H](C)/C=C/C=C3\CO[C@@H]4[C@H](O)C(C)=C[C@@H](C(=O)O1)[C@]34O)O2` (stereo partly drawn), the Reduction with Ovis aries [1] is on record as greater than 95%; with Ovis aries [2], greater than 95%; in the assay on Ovis aries [3], greater than 95%; in the assay with Ovis aries [4], greater than 95%; in the assay on Ovis aries [5] it was greater than 95%; in the assay on Ovis aries [6] it was less than 50%. Moreover, in the assay on Ovis aries [7], the Reduction is greater than 95%. This molecule also yielded an IC100 in the assay with Artemia greater than 55500 ng/mL.

As for `CCC(C)[C@H]1O[C@]2(C=C[C@@H]1C)C[C@@H]1C[C@@H](C/C=C(\C)[C@@H](O[C@H]3C[C@H](OC)[C@@H](O[C@H]4C[C@H](OC)[C@H](N(C)C)[C@H](C)O4)[C@H](C)O3)[C@@H](C)/C=C/C=C3\CO[C@@H]4[C@H](O)C(C)=C[C@@H](C(=O)O1)[C@]34O)O2` (stereo partly drawn), the Reduction was 51% in the assay with Ovis aries [8]; less than 50% in the assay on Ovis aries [9]; greater than 95% in the assay with Ovis aries [10]; greater than 95% in the assay with Ovis aries [11]; greater than 95% in the assay on Ovis aries [12]; 51% in the assay on Ovis aries [13]. Further, the IC100 in the assay with Artemia is 1300 ng/mL.

For `CCC(C)[C@H]1O[C@]2(C=C[C@@H]1C)C[C@@H]1C[C@@H](C/C=C(\C)[C@@H](O[C@H]3C[C@H](OC)[C@@H](O[C@H]4C[C@H](OC)[C@H](NC(C)C)[C@H](C)O4)[C@H](C)O3)[C@@H](C)/C=C/C=C3\CO[C@@H]4[C@H](O)C(C)=C[C@@H](C(=O)O1)[C@]34O)O2` (stereo partly drawn), the Reduction in the assay with Ovis aries [14] is recorded as 51%; in the assay on Ovis aries [15], 76%; in the assay with Ovis aries [16], greater than 95%; with Ovis aries [17], less than 50%; in the assay on Ovis aries [18] it was 51%; in the assay with Ovis aries [19] it was 51%. In the assay with Ovis aries [20], the Reduction is recorded as less than 50%. This molecule registered an IC100 in the assay on Artemia of 1730 ng/mL.

Consider `CCC(C)[C@H]1O[C@]2(C=C[C@@H]1C)C[C@@H]1C[C@@H](C/C=C(\C)[C@@H](O[C@H]3C[C@H](OC)[C@@H](O[C@H]4C[C@H](OC)[C@H](NN(C)C)[C@H](C)O4)[C@H](C)O3)[C@@H](C)/C=C/C=C3\CO[C@@H]4[C@H](O)C(C)=C[C@@H](C(=O)O1)[C@]34O)O2` (stereo partly drawn), for which the Reduction (in the assay with Cooperia; with Trichostrongylus axei; in assay [21]; in the assay with Haemonchus contortus; in [22]; with Cooperia oncophora) was greater than 95% in each case. The molecule further came in with a Reduction in assay [23] greater than 95%. In addition, in the assay with Artemia, the IC100 is 430 ng/mL.

Consider `CCC(C)[C@H]1O[C@]2(C=C[C@@H]1C)C[C@@H]1C[C@@H](C/C=C(\C)[C@@H](O[C@H]3C[C@H](OC)[C@@H](O[C@H]4C[C@H](OC)/C(=N\NC(N)=O)[C@H](C)O4)[C@H](C)O3)[C@@H](C)/C=C/C=C3\CO[C@@H]4[C@H](O)C(C)=C[C@@H](C(=O)O1)[C@]34O)O2` (stereo partly drawn), for which the Reduction in the assay with Ovis aries [24] was greater than 95%; in the assay with Ovis aries [25], greater than 95%; in the assay on Ovis aries [26] it was greater than 95%; with Ovis aries [27], greater than 95%; in the assay on Ovis aries [28], greater than 95%; with Ovis aries [29], less than 50%. For the same molecule, the IC100 in the assay on Artemia was found to be 650 ng/mL.

(Values after ChEMBL document CHEMBL1128617, “4-Deoxy-4-aminoavermectins with potent broad spectrum antiparasitic activities” (1995).)
